Source: US7820714B2, “Siglec inhibitors” (priority 2001, dated 2010)
Like-named read-outs stand apart in the source and are kept apart here.

Legend:
[1] = target: Siglec-1 (sialoadhesin) (Mus musculus, UniProt Q62230); test: Hapten inhibition assay, Siglec-1 (sialoadhesin); type: binding; details: for Siglec-1 (sialoadhesin) rIP: quotient IC50 reference compound / IC50 compound; for Siglec-1 (sialoadhesin) percentage in parentheses below the IC50 bound: at the concentration of the IC50 bound, meaning not defined in the patent
Sequence of Siglec-1 (sialoadhesin) (Q62230 20-136 limits assumed): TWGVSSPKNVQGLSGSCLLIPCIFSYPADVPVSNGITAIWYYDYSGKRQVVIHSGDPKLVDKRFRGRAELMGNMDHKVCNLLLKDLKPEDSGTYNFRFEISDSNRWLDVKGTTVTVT
Description: (§2) Preferably, the inhibition can be determined by a Hapten inhibition test. […] After overnight incubation at 4° C. the unbound complexes are removed by washing the cells and the bound radioactivity is determined. From the data obtained in this way, the concentrations are found which lead to 50% inhibition of the binding (IC50 values) (5, 6). Specially preferred during the Hapten inhibition test was 10 μl of the complex solution with an activity of 10^3 Bq ^125I mixed with the same volume of a solution of the substance to be investigated (concentrated three times) and incubated at 4° C. for one hour. Then followed the addition of 10 μl of a suspension of target cells, preferably 0.25 to 0.5% of human erythrocytes and incubation overnight at 4° C. The unbound radioactivity is removed by washing the cells five times with 200 μl of washing buffer, preferably phosphate-buffered saline with 0.1% (W/V) bovine serum albumin, and the cell-bound activity is determined with a γ-counter. […] The inhibition is determined in that the value without inhibitor is set to 0% and that with the sialidase-treated cells is set equal to 100%.
(§3) The IC50 value is the siglec inhibitor concentration which leads to 50% inhibition in the binding in the Hapten inhibition assay.

[2] = target: T1, Siglec-2 (human CD22) (Homo sapiens, UniProt P20273); test: Hapten inhibition assay, Siglec-2 (human CD22); type: binding; details: for Siglec-2 (human CD22) rIP: quotient IC50 reference compound / IC50 compound
T1 sequence (P20273 20-138 limits assumed): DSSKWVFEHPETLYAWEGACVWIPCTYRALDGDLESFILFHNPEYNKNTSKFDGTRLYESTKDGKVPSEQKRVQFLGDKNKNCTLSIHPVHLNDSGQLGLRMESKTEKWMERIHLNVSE
Description: as §2, §3

[3] = target: T2, Siglec-2 (murine CD22) (Mus musculus, UniProt P35329); test: Hapten inhibition assay, Siglec-2 (murine CD22); type: binding; details: for Siglec-2 (murine CD22) rIP: quotient IC50 reference compound / IC50 compound
T2 sequence (P35329 22-148 limits assumed): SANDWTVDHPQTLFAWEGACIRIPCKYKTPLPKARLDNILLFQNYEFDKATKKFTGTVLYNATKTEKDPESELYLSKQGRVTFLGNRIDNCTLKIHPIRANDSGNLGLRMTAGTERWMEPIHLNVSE
Description: as §2, §3

[4] = system: Daudi cells; test: Ca2+ concentration in Daudi cells stimulated with anti-IgM; type: cell-based; details: Daudi cells stimulated with anti-IgM in the presence of the compound
Text: (§1) The compound BPC-Neu5Ac (shown below) was used according to known methods in test series for the investigation of the selectivity and the activity. […] This impairment with regard to the binding of ligands leads to an incomplete activation of the intracellular inhibitor domain of CD22.

[5] = system: primary B-lymphocytes from human blood; test: Ca2+ concentration in primary B-lymphocytes stimulated with anti-IgM; type: cell-based
Text: as §1

[6] = target: T3, Siglec-4a (MAG) (UniProt P20917); test: Hapten inhibition assay, Siglec-4a (MAG); details: for Siglec-4a (MAG) rIP: quotient IC50 reference compound / IC50 compound; for IC50: read-out: Siglec-4a (MAG) IC50
T3 sequence (P20917 1-627): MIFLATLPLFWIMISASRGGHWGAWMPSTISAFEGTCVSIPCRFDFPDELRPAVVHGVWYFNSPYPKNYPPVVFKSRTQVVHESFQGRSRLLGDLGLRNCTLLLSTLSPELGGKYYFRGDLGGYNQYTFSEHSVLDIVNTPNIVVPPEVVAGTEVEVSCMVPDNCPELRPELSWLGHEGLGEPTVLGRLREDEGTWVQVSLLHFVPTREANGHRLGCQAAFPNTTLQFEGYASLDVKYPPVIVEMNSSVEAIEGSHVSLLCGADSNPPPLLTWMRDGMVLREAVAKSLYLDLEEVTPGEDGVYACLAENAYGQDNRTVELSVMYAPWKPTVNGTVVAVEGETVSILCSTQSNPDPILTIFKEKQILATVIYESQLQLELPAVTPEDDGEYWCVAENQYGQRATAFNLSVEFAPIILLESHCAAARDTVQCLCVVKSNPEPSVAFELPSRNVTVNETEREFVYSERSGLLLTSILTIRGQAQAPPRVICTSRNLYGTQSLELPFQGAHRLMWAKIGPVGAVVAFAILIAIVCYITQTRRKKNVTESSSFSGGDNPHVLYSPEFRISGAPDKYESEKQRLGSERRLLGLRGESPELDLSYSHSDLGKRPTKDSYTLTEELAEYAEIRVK
Description: Preferably, the inhibition can be determined by a Hapten inhibition test. […] After overnight incubation at 4° C. the unbound complexes are removed by washing the cells and the bound radioactivity is determined. […] Then followed the addition of 10 μl of a suspension of target cells, preferably 0.25 to 0.5% of human erythrocytes and incubation overnight at 4° C. The unbound radioactivity is removed by washing the cells five times with 200 μl of washing buffer, preferably phosphate-buffered saline with 0.1% (W/V) bovine serum albumin, and the cell-bound activity is determined with a γ-counter. […] The inhibition is determined in that the value without inhibitor is set to 0% and that with the sialidase-treated cells is set equal to 100%.

[7] = at the concentration of the IC50 bound, meaning not defined in the patent

Row | Siglec-1 (sialoadhesin) rIP [1] | IC50 ([1]; unit inferred) | Siglec-2 (human CD22) rIP [2] | binds stronger to siglec-2 than the reference compound ([2]; relative to 2-alpha-methyl-5-N-acetyl-neuraminic acid) | IC50 ([2]; unit inferred) | Siglec-2 (murine CD22) rIP [3] | IC50 ([3]; unit inferred) | Siglec-4a (MAG) rIP [6] | IC50 ([6]; unit inferred) | Siglec-1 (sialoadhesin) percentage in parentheses below the IC50 bound [1] | IC50 ([1]; bounds given in mM) | Siglec-2 (human CD22) percentage in parentheses below the IC50 bound [2, 7] | IC50 ([2]; bounds given in mM) | Siglec-2 (murine CD22) percentage in parentheses below the IC50 bound [3, 7] | IC50 ([3]; bounds given in mM) | Siglec-4a (MAG) percentage in parentheses below the IC50 bound [6, 7] | IC50 ([6]; bounds given in mM) | Molecule | selectivity of affinity for hCD22 ([2]; in words) | Ca2+ concentration [4] | Ca2+ concentration [5]
1 | 13 | 0.052 mM | 150 | approximately 150 times | 0.004 mM | 5.0 | 1.22 mM | 218 | 0.022 mM | – | – | – | – | – | – | – | – | CO[C@]1(C(=O)O)CC(O)[C@@H](NC(C)=O)C([C@@H](O)[C@H](O)CNC(=O)c2ccc(-c3ccccc3)cc2)O1 (stereo partly drawn) [Methyl-α-9-N-(biphenyl-4-carbonyl)-amino-9-desoxy-Neu5Ac] | very remarkable selective affinity for hCD22 | rise in the Ca^2+ concentration | clearly increased Ca^2+ concentration
2 | <0.8 | – | <<2 | – | – | <1.5 | – | <<0.5 | – | (74%) | > 1 mM | (117%) | > 1 mM | (74%) | > 2 mM | (225%) | > 1 mM | COC1(C(=O)O)CC(O)C(O)C(C(O)C(O)CO)O1 (stereo not drawn) [Methyl-α-ketodesoxy-nonulsonic acid] | – | – | –
3 | 0.8 | 0.6 mM | 1.6 | – | 1.37 mM | 1.1 | 4.25 mM | 1.3 | 2.77 mM | – | – | – | – | – | – | – | – | CS[C@]1(C(=O)O)C[C@H](O)[C@@H](NC(C)=O)[C@H]([C@H](O)[C@H](O)CO)O1 [Methylthio-α-Neu5Ac] | – | – | –
4 | <<0.5 | – | 28 | – | 0.077 mM | 48 | 0.1 mM | 41 | 0.106 mM | (121%) | > 1.5 mM | – | – | – | – | – | – | Methyl-α-9-N-fluoresceinyl-amino-9-desoxy-Neu5Ac | – | – | –
